Source: patent US20040248887A1, “Inhibitors of cathepsin S” (IRM LLC, priority 2003, published 2004)
pKi: −log10 of the molar value.

These compounds were tested against Cathepsin S (Homo sapiens, UniProt P25774) (assay: Cathepsin S inhibition, fluorogenic peptide substrate kinetic assay). Settings: Table II; Cathepsin S inhibition constant, pH5.5; read-out: Ki Cat. S.
Type: biochemical
Source text: “Inhibition constant”, Ki, is the dissociation constant of the enzyme-inhibitor complex, or the reciprocal of the binding affinity of the inhibitor to the enzyme. […] The inhibited rates are then fit by nonlinear regression to the following equation: [formula]
where vo is the initial rate of substrate processing in the absence of inhibitor, v; is the initial rate of substrate processing at a concentration [I] of inhibitor, Km is the steady state Michaelis constant (Fersht, A. Structure and Mechanism in Protein Science. New York, W.H. Freeman and Company, 1999), and [S] is the concentration of competitive substrate.
The assumption being made for the classical inhibition described above is that the free inhibitor concentration is equal to the total inhibitor concentration.
The inhibition constant, Ki, can be determined from the apparent inhibition constant, Ki^app, for competitive inhibitors by using the following relationship: [formula]
The optimal substrate for cathepsin S, acetyl-histidine-proline-valine-lysine-amino carbamoyl coumarin, was identified from screening a combinatorial library of fluorogenic peptide substrates (Harris, J. L., B. J. Backes, et al., Proc Natl Acad Sci USA 2000, 97(14), 7754-9). Kinetic measurements are performed in a total reaction volume of 30 μl in 384-well microtiter plates. […] The reactions are initiated by adding the substrate, acetyl-histidine-proline-valine-lysine-amino carbamoyl coumarin, to a final concentration of 50 μM. The rate of substrate hydrolysis is measured by monitoring the increase in fluorescence at an excitation wavelength of 380 nm and an emission wavelength of 450 nm that results from cleavage of the aniline bond in the substrate by the enzyme. The apparent inhibition constants for the compounds are determined from the enzyme progress curves (Kuzmic, P., K. C. Elrod, et al., Anal Biochem 2000, 286(1), 45-50) and are then used to calculate the inhibition constants for competitive inhibitors.

Cathepsin S, sequence (P25774 115-331, species assumed): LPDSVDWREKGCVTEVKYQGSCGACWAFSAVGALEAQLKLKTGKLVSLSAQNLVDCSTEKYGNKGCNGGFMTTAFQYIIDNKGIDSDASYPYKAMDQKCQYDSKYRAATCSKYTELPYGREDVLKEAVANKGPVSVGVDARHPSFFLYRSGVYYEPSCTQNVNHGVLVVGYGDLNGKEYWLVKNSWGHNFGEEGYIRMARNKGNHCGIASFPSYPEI

Structure (SMILES)	pKi
COc1ccc(N2CCC[C@@H](NC(=O)[C@H](CC(C)C)NC(=O)c3cccc(C)c3)C2)cc1 (single isomer, unassigned) [Compound 32]	> 5.00
C[C@@H](CNc1ccc(C#N)cc1)NC(=O)[C@H](CC1CCCCC1)NC(=O)c1ccc(-c2cccc(F)c2)o1 [Compound 93, 5-(3-Fluoro-phenyl)-furan-2-carboxylic acid {1-(S)-[2-(4-cyano-phenylamino)-1-(S)-methyl-ethylcarbamoyl]-2-cyclohexyl-ethyl}-amide]	> 6.00
CS(=O)(=O)N[C@@H](CC1CCCCC1)C(=O)NCCN1CCc2cc(F)ccc21 [Compound 249, (S)-3-Cyclohexyl-N-[2-(5-fluoro-2,3-dihydro-indol-1-yl)-ethyl]-2-methanesulfonylamino-propionamide]	> 5.00
Cc1cccc(C(=O)N[C@@H](CC(C)C)C(=O)N[C@@H](CCNC(N)=O)CN2CCc3cc(F)ccc32)c1 [Compound 45, (S,S)-N-{1-[1-(5-Fluoro-2,3-dihydro-indol-1-ylmethyl)-3-ureido-propylcarbamoyl]-3-methyl-butyl}-3-methyl-benzamide]	> 6.00
O=C(NCCN1CCc2cc(F)ccc21)[C@H](CC1CCCCC1)NS(=O)(=O)c1cccc2ccccc12 [Compound 228, (S)-3-Cyclohexyl-N-[2-(5-fluoro-2,3-dihydro-indol-1-yl)-ethyl]-2-(naphthalene-1-sulfonylamino)-propionamide]	> 6.00
O=C(N[C@@H](CC1CCCCC1)C(=O)NCCN1CCc2cc(F)ccc21)C1CC(=O)N(Cc2ccccc2)C1 (stereo partly drawn) [Compound 65, 1-Benzyl-5-oxo-pyrrolidine-3-carboxylic acid (S)-{2-cyclohexyl-1-[2-(5-fluoro-2,3-dihydro-indol-1-yl)-ethylcarbamoyl]-ethyl}-amide]	> 6.00
COc1cccc(C(=O)N[C@@H](CCC2CCCCC2)C(=O)NCCN2CCc3cccc(F)c32)c1 [Compound 11, (S)-N-{3-Cyclohexyl-1-[2-(7-fluoro-2,3-dihydro-indol-1-yl)-ethylcarbamoyl]-propyl}-3-methoxy-benzamide]	> 5.00
C[C@@H](CNc1ccc(OC(F)(F)F)cc1)NC(=O)[C@H](CC(C)(C)C)NC(=O)C1CCOCC1 [Compound 269, Tetrahydropyran-4-carboxylic acid {3,3-dimethyl-1-(S)-[1-(S)-methyl-2-(4-trifluoromethoxy-phenylamino)-ethylcarbamoyl]-butyl}-amide]	> 6.00
COc1cccc(C(=O)N[C@@H](CCC2CCCCC2)C(=O)NCCN2CCc3cccc(OC)c32)c1 [Compound 8, (S)-N-{3-Cyclohexyl-1-[2-(7-methoxy-2,3-dihydro-indol-1-yl)-ethylcarbamoyl]-propyl}-3-methoxy-benzamide]	> 5.00
COc1cccc(C(=O)N[C@@H](CCC2CCCCC2)C(=O)NCCN2CCc3ccc(F)cc32)c1 [Compound 10, (S)-N-{3-Cyclohexyl-1-[2-(6-fluoro-2,3-dihydro-indol-1-yl)-ethylcarbamoyl]-propyl}-3-methoxy-benzamide]	> 5.00
C[C@@H](CNc1ccc(OC(F)(F)F)cc1)NC(=O)[C@H](CC1CCCCC1)NC(=O)c1nc(-c2ccc(F)cc2)no1 [Compound 109, 3-(4-Fluoro-phenyl)-[1,2,4]oxadiazole-5-carboxylic acid {2-cyclohexyl-1-(S)-[1-(S)-methyl-2-(4-trifluoromethoxy-phenylamino)-ethylcarbamoyl]-ethyl}-amide]	> 7.00

Other lines, results leading:

pKi	Structure (SMILES)
> 7.00	C[C@@H](CN1CCc2cc(F)ccc21)NC(=O)[C@H](CC(C)(C)C)NC(=O)C1CC1 [Compound 177, Cyclopropanecarboxylic acid {1-(S)-[2-(5-fluoro-2,3-dihydro-indol-1-yl)-1-(S)-methyl-ethylcarbamoyl]-3,3-dimethyl-butyl}-amide]
> 7.00	C[C@@H](CNc1ccc(OC(F)(F)F)cc1)NC(=O)[C@H](CC1CCCCC1)NC(=O)c1nc(-c2cccc(F)c2)no1 [Compound 108, 3-(3-Fluoro-phenyl)-[1,2,4]oxadiazole-5-carboxylic acid {2-cyclohexyl-1-(S)-[1-(S)-methyl-2-(4-trifluoromethoxy-phenylamino)-ethylcarbamoyl]-ethyl}-amide]
> 7.00	COc1cccc(C(=O)N[C@@H](CC2CCCCC2)C(=O)N[C@@H](CO)CN2CCc3cc(F)ccc32)c1 [Compound 150, N-{2-Cyclohexyl-1-(S)-[2-(5-fluoro-2,3-dihydro-indol-1-yl)-1-(R)-hydroxymethyl-ethylcarbamoyl]-ethyl}-3-methoxy-benzamide]
> 7.00	O=C(NC(C(=O)N[C@@H](COCc1ccccc1)CN1CCc2cc(F)ccc21)c1ccc(Cl)cc1Cl)c1ccco1 (mixture of isomers) [Compound 207, N-(R,S)-((3-(benzyloxy)-1-(5-fluoroindolin-1-yl)propan-2-(R)-ylcarbamoyl)(2,4-dichlorophenyl)methyl)furan-2-carboxamide]
> 7.00	COc1ccc(NC[C@H](COCc2ccccc2)NC(=O)[C@H](CC(C)C)NC(=O)c2cccc(C)c2)cc1 [Compound 35, N-{1-(S)-[1-(R)-Benzyloxymethyl-2-(4-methoxy-phenylamino)-ethylcarbamoyl]-3-methyl-butyl}-3-methyl-benzamide]
> 7.00	C[C@@H](CNc1ccccc1Cl)NC(=O)[C@H](CC1CCCCC1)NC(=O)c1ccc(-c2cccc(F)c2)o1 [Compound 113, 5-(3-Fluoro-phenyl)-furan-2-carboxylic acid {1-(S)-[2-(2-chloro-phenylamino)-1-(S)-methyl-ethylcarbamoyl]-2-cyclohexyl-ethyl}-amide]
> 7.00	COc1cccc(C(=O)N[C@@H](CC(C)(C)C)C(=O)N[C@@H](CC#N)CN2CCc3cc(F)ccc32)c1 [Compound 165, N-{1-(S)-[2-Cyano-1-(S)-(5-fluoro-2,3-dihydro-indol-1-ylmethyl)-ethylcarbamoyl]-3,3-dimethyl-butyl}-3-methoxy-benzamide]
> 7.00	C[C@@H](CNc1cccc(OC(F)(F)F)c1)NC(=O)[C@H](CC1CCCCC1)NC(=O)c1ccc(-c2cccc(F)c2)o1 [Compound 111, 5-(3-Fluoro-phenyl)-furan-2-carboxylic acid {2-cyclohexyl-1-(S)-[1-(S)-methyl-2-(3-trifluoromethoxy-phenylamino)-ethylcarbamoyl]-ethyl}-amide]
> 7.00	COc1cccc(C(=O)N[C@@H](CC(C)(C)C)C(=O)N[C@@H](Cc2nnn[nH]2)CN2CCc3cc(F)ccc32)c1 [Compound 166, N-{1-(S)-[2-(5-Fluoro-2,3-dihydro-indol-1-yl)-1-(S)-(1H-tetrazol-5-ylmethyl)-ethylcarbamoyl]-3,3-dimethyl-butyl}-3-methoxy-benzamide]
> 7.00	O=C(NCCN1CCc2cc(F)ccc21)[C@H](CC1CCCCC1)NS(=O)(=O)c1ccc(Cl)s1 [Compound 227, (S)-2-(5-Chloro-thiophene-2-sulfonylamino)-3-cyclohexyl-N-[2-(5-fluoro-2,3-dihydro-indol-1-yl)-ethyl]-propionamide]
> 7.00	C[C@@H](CN1CCc2cc(F)ccc21)NC(=O)[C@H](CC1CCCCC1)NC(=O)OCc1ccccc1 [Compound 174, {2-Cyclohexyl-1-(S)-[2-(5-fluoro-2,3-dihydro-indol-1-yl)-1-(S)-methyl-ethylcarbamoyl]-ethyl}-carbamic acid benzyl ester]
